Read-outs that look alike come from different tables or passages of the source.
Assay: In vivo pharmacokinetic studies of pyridyl substituted ketolides in rats (plasma and whole lung, LC-MS-MS)
Details: male Sprague-Dawley rats; for clearance / Vd / AUC / bioavailability / half-life / Kp: rat; for clearance / Vd: IV = 5 mg/kg, PO = 15 mg/kg; for clearance: read-out: CL (clearance of the compound from plasma); for Vd: read-out: Vss (volume of distribution); for bioavailability: read-out: F, PO (% bioavailability); for Kp: whole lung vs plasma, read-out: L/P ratio, IV (ratio of drug in lung/plasma after IV dosing)
Procedure: Animal Models. A total of 54 male Sprague-Dawley rats, weighing 200 grams in average, are evaluated for pharmacokinetic studies of representative substituted pyridyl ketolides. Rats are under overnight food restriction and receive water ad libitum. Rats are acclimated for approximately 5 days before antibiotic administration. Antibiotic Administration. Rats are given bolus administration through intravenous (IV) and oral (PO) routes. Representative substituted pyridyl ketolides and telithromycin, for comparison, are diluted in 0.85% saline to a concentration of 15.0 mg/ml, and the resulting pH is adjusted using 1N acetic acid until the compound is in solution. Approximately 200 μl of the compound solution is administered to the rats. The target dose for IV and PO administration is 5 mg/kg and 15 mg/kg, respectively. Sample Collection. Plasma and whole lung samples are collected from the rats. Plasma samples are obtained from blood samples by centrifugation at 3000 RPM for 10 min. Heparin is added in the plasma as an anticoagulant. Whole lung samples are homogenized in deionized water. Samples are stored at −80° C. A total of 9 time points are collected in triplicate at 0.083, 0.25, 0.5, 1, 2, 4, 6, 8, and 24 h. Ketolide concentrations in plasma and lung are determined by well-established non-GLP LC-MS-MS methods. PK parameters are estimated from the raw bioanalytical data using WinNolin software (Version 4.0, Pharsight Corporation, CA). All representative compounds are compared to telithromycin.

[1] = plasma, PO 15 mg/kg vs IV 5 mg/kg
[2] = IV bolus 5 mg/kg, plasma, read-out: t1/2, IV Plasma (converted)
[3] = PO 15 mg/kg, plasma, read-out: t1/2, PO Plasma (converted)

Compound | clearance (plasma) [mL/min/kg] | Vd (plasma) [L/kg] | AUC (plasma, IV bolus 5 mg/kg) [ng·h/mL] | bioavailability [1] [%] | half-life [2] [h] | Kp (IV bolus 5 mg/kg) | half-life [3] [h] | t1/2, IV Plasma (IV bolus 5 mg/kg, plasma) [h] | F, PO (% bioavailability) (PO 15 mg/kg vs IV 5 mg/kg) [%] | t1/2, PO Plasma (PO 15 mg/kg, plasma) [h]
CC[C@H]1OC(=O)[C@H](C)C(=O)[C@H](C)[C@@H](O[C@@H]2O[C@H](C)C[C@H](N(C)C)[C@H]2O)[C@@](C)(OC)C[C@@H](C)C(=O)[C@H](C)[C@H]2N(CCCCn3cnc(-c4ccc(C)nc4)c3)C(=O)O[C@]12C [Cmpd B] | 48 | 6.5 | 1700 | 54 | 1.8 | 27 | 3.3 | – | – | –
CC[C@H]1OC(=O)[C@H](C)C(=O)[C@H](C)[C@@H](OC2O[C@H](C)C[C@H](N(C)C)[C@H]2O)[C@@](C)(OC)C[C@@H](C)C(=O)[C@H](C)[C@H]2N(CCCCn3cnc(-c4ccc(OC)nc4)c3)C(=O)O[C@]12C (some centres unmarked) [Cmpd D] | 25 | 4.3 | 3000 | 100 | 2.1 | 32 | – | – | – | –
CC[C@H]1OC(=O)[C@H](C)C(=O)[C@H](C)[C@@H](O[C@@H]2O[C@H](C)C[C@H](N(C)C)[C@H]2O)[C@@](C)(OC)C[C@@H](C)C(=O)[C@H](C)[C@H]2N(CCCCn3cnc(-c4ccc(Cl)nc4)c3)C(=O)O[C@]12C [Cmpd E] | 38 | 5.6 | 2200 | 86 | 1.6 | 29 | 3.3 | – | – | –
CC[C@H]1OC(=O)[C@H](C)C(=O)[C@H](C)[C@@H](O[C@@H]2O[C@H](C)C[C@H](N(C)C)[C@H]2O)[C@](C)(OC)C[C@@H](C)C(=O)[C@H](C)[C@H]2N(CCCCn3cnc(-c4cccnc4)c3)C(=O)O[C@]12C [Telithromycin, telithromycin, reference compound] | 100 | 5 | – | – | – | 16 | – | 1.0 | 11 | 1.5
